Data: paper PMC8171317, “Total synthesis, isolation, surfactant properties, and biological evaluation of ananatosides and related macrodilactone-containing rhamnolipids” (Chemical Science, 2021)
Marks after values point to notes of the source that are not given here.

Assays:
[1] = Dynamic light scattering (Zetasizer), hydrodynamic diameter of micelles; type: physicochemical; conditions: pH 7.0; concentration 80 μM
Description: In parallel to these experiments, we took advantage of dynamic light scattering (DLS) to evaluate the hydrodynamic diameter of biosurfactant micelles formed at concentrations above the CMC (Table 4).[79] DLS considers the intensity of light scattered by spherical particles, which prevents its application for highly polydisperse and non-spherical colloidal systems. […] Once again, due to its hydrophobicity, ananatoside A (1) was too polydisperse for conducting a proper distribution analysis, showing a Z-average value above 800 nm, which meant that the particles were aggregated in water at the tested concentration. Similar results were obtained for ananatoside A (1) when the DLS experiments were conducted in DMSO as the solvent.

[2] = Emulsifying activity against hydrocarbon contaminants; type: physicochemical; conditions: cyclohexane and kerosene
Protocol: Therefore, the emulsifying properties of microbial biosurfactants 1–3 were evaluated against light as well as heavy hydrocarbon contaminants such as cyclohexane and kerosene, respectively (see Fig. S7 ^†).

[3] = Cytotoxicity, resazurin assay, summary over cell lines; type: cell-based; conditions: human, DLD-1 and WS1 cells (summary over the three lines); A549, DLD-1 and WS1; read-out: Cytotoxicity IC50 against human cell lines
Protocol: As the anticancer potential of microbial rhamnolipids has previously been reported,[16] we next sought to evaluate the in vitro cytotoxicity of our synthetic and natural glycolipids 1–6 against cancerous cell lines, i.e., human lung carcinoma (A549) and colorectal adenocarcinoma (DLD-1). The compounds were also tested against human normal skin fibroblasts (WS1) to estimate their selectivity towards cancer cells.
4. Experimental Procedures for Biological Evaluation and Surfactant Properties. […]
Cell Culture. Human lung carcinoma (A549), human colorectal adenocarcinoma (DLD-1), and human normal skin fibroblasts (WS1) cell lines were obtained from the American Type Culture Collection (ATCC). All cell lines were cultured in minimum essential medium containing Earle’s […]
salts and L-glutamine (Mediatech Cellgro, VA), to which were added 10% foetal bovine serum (Hyclone), vitamins (1×), penicillin (100 IU•mL-1), streptomycin (100 µg•mL−1), essential amino acids (1×), and sodium pyruvate (1×) (Mediatech Cellgro, VA). Cells were kept at 37 °C in a humidified environment containing 5% CO2.
Cytotoxicity Assay. Exponentially growing A549, DLD-1 or WS1 cells were plated in 96-well microplates (Costar, Corning Inc.) at a density of 5 × 10^3 cells per well in 100 µL of culture medium and were allowed to adhere for 16 h prior treatment. Increasing concentrations of each compound in biotech DMSO (Sigma-Aldrich) were then added (100 µL per well) and the cells were incubated for 48 h. The final concentration of DMSO in the culture medium was maintained at 0.5% (v/v) to avoid solvent toxicity. Cytotoxicity was assessed using resazurin9 on an automated 96-well Fluoroskan Ascent F1TM plate reader (Labsystems) using excitation and emission wavelengths of 530 and 590 nm, respectively. Fluorescence was proportional to the cellular metabolic activity in each well. Survival percentage was defined as the fluorescence in experimental wells as compared to that in control wells after subtraction of blank values. Each experiment was carried out three times in triplicate. IC50 results were expressed as means ± standard deviation. […]

sheep blood erythrocytes = test: Hemolytic activity; type: cell-based; conditions: sheep blood erythrocytes; 1 h, 37 °C; max tested 200 μM
Protocol: Owing to their surfactant properties, glycolipids can break the membrane of red blood cells causing hemolytic activity.[18] To understand if the cytotoxicity of macrolactones 1, 4, 5β, and 6β was due to their surface tension activity, we evaluated the hemolytic potential of synthetic glycolipids 1–6 against sheep erythrocytes (Table 5). […] The non-cytotoxic rhamnolipid 3 was also found to exert a weak hemolytic activity (HC50 = 65 ± 6 μM). […]
Hemolytic Activity. The hemolytic activity of the synthetic surfactants was evaluated as previously described with small modifications.10 Defibrinated sheep blood (Oxoid) was centri fuged at 1000 × g for 5 min. The pellet containing erythrocytes was washed once and suspended in 1X PBS to obtain a 1% erythrocytes suspension. All samples were suspended in DMSO/PBS (5:1 v/v) and serially diluted in a 96 -well plate to obtain a range of co ncentrations from 1 mM to 7.8 µM.
The erythrocytes suspension (160 µL) was added to 40 µL of samples to obtain final concentrations […]
ranging between 200 µM and 1.56 µM. Triton X-100 was used as a positive hemolysis control.
The plate was then incubated at 37 °C with agitation at 150 rpm for 1 h and centrifuged at 1500 × g for 5 min. The supernatant was transferred in an empty plate and absorbance was measured at 540 nm using a Cytation3 microplate reader (Biotek). HC50 was calculated in comparison with the positive control. The experiment was performed in triplicate and repeated three times. […]

Row | Z-Average (hydrodynamic diameter of micelles) [1] [nm] | Compound | Emulsifying activity [2] | IC50 at 48 h [3] [µM] | Hemolysis (HC50 in μM) Erythrocytes (sheep blood erythrocytes)
1 | 99.0 | CCCCCCC[C@H](CC(=O)O)OC(=O)C[C@@H](CCCCCCC)O[C@@H]1O[C@H](CO)[C@@H](O)[C@H](O)[C@H]1O [Compound 2, ananatoside B] | equally able to generate emulsions with cyclohexane and kerosene | > 200 | >200 ^d μM
2 |  | CCCCCCC[C@@H]1CC(=O)OC[C@H]2O[C@@H](O[C@H](CCCCCCC)CC(=O)O1)[C@H](O)[C@@H](O)[C@@H]2O [Compound 1, ananatoside A] | unable to form any emulsion | 50 to 58 | 12.3 ± 0.3 µM
